Where a SMILES comes first, the peptide text is derived from it. [ ]: non-standard residue; d: D form. dPhe(4-Cl) = N[C@H](Cc1ccc(Cl)cc1)C(=O)O; d2Nal = N[C@H](Cc1ccc2ccccc2c1)C(=O)O; dCit = NC(=O)NCCC[C@@H](N)C(=O)O; d3Pal = N[C@H](Cc1cccnc1)C(=O)O; pGlu = O=C1CC[C@@H](C(=O)O)N1
Assays:
rat GnRHR [1] = target: T1, rat GnRHR (Rattus norvegicus, UniProt P30969); test: Inhibition of GnRH-1-induced IP production in GH3 cells expressing rat GnRHR; assay type: cell-based
T1 construct: expressed in transfected cells; host or cells: GH3 cells, retroviral infection
T1 sequence (P30969 1-327): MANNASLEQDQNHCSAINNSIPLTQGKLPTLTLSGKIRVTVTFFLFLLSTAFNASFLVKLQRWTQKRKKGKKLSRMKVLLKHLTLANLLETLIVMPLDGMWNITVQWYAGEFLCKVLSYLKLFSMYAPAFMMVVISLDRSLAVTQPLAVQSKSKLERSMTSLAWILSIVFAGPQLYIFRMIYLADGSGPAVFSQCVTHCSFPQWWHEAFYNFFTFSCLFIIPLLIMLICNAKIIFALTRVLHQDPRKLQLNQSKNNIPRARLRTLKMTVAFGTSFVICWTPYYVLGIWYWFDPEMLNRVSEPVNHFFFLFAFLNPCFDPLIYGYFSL
Description: (§1) GH3 cell lines were obtained from the Cell Line Bank at the Cancer Research Center, Seoul National University College of Medicine, located in Seoul, Republic of Korea. The GH3 cell lines were infected with retroviruses comprising genes encoding bfGnRHR-1, bfGnRHR-2, and bfGnRHR-3 which are bullfrog GnRH receptors, and rat GnRHR, and cell lines expressing each of these receptors were obtained. The GH3 cells expressing bfGnRHR-1, bfGnRHR-2, bfGnRHR-3, and rat GnRHR were cultured on 12-well plates. After 24 hours, the cells were cultured again for 24 hours in a media containing no inositol, to which H^3-myoinositol was added. The resultant cells were washed with buffer A (140 mM NaCl, 20 mM HEPES, 4 mM KCl, 8 mM D-Glucose, 1 mM MgCl2, 1 mM CaCl2, 1 mg/ml BSA) and then cultured in buffer A containing 10 mM LiCl at 37°C. for 30 minutes. Thereafter, they were treated with GnRH having a suitable concentration, cultured at 37° C. for another 30 minutes, and then the media was eliminated. The cells were treated with 10 mM of ice-cold formic acid to terminate the reaction, and the cell extracts were mixed with Dowex anionic exchange resins. These resins were washed with distilled water, IP was extracted with 1 M ammonium formate/0.1 M formic acid, and cpm (count per minute) was determined.
However, Trptorelix-1 could reduce the production of IP induced by 1 nM GnRH-2, in a concentration-dependent manner (FIG. 6a to FIG. 6c).

Primate GnRH-2 receptor [2] = test: Inhibition of GnRH-2-induced c-fos-luc luciferase activity in cells expressing Primate GnRH-2 receptor; assay type: cell-based; details: treated at the same time as GnRH-2
Description: (§2) Complimentary DNA (cDNA) for a Primate GnRH-2 receptor was obtained from a CV-1 cell genome. […] Plasmids having Primate GnRH-2 receptors where transfected into CV-1 cells. To assay the activity of the receptor, c-fos-luc where a luciferase gene is fused with a c-fos promoter was co-transfected as a probe gene. After 48 hours from transfection, the cells were treated with GnRH-2 agonists and then the activity of luciferase was assayed (Seong et al., Endocrinology vol 144 2003, 454-466).
In the same manner as in 2-3 above, Primate GnRH-2 receptors were co-transfected along with c-fos-luc reporter genes, and after 48 hours, GnRH-2 and GnRH-2 antagonists were treated thereinto at the same time and then the effect of GnRH-2 antagonists was observed.

bullfrog GnRH receptors = test: Antagonist effect on IP production in GH3 cells expressing bullfrog GnRH receptors (bfGnRHR-2 and bfGnRHR-3 together); assay type: cell-based; details: GH3 cells expressing bfGnRHR-2 and bfGnRHR-3, no GnRH-2
From the text: In summary, it is concluded that Trptorelix is a very specific antagonist for GnRH-2. GH3 cell lines were obtained from the Cell Line Bank at the Cancer Research Center, Seoul National University College of Medicine, located in Seoul, Republic of Korea. The GH3 cell lines were infected with retroviruses comprising genes encoding […]-2, and bfGnRHR-3 which are bullfrog GnRH receptors, and rat GnRHR, and cell lines expressing each of these receptors were obtained. The GH3 cells expressing […]-3, and rat GnRHR were cultured on 12-well plates. After 24 hours, the cells were cultured again for 24 hours in a media containing no inositol, to which H^3-myoinositol was added. The resultant cells were washed with buffer A (140 mM NaCl, 20 mM HEPES, 4 mM KCl, 8 mM D-Glucose, 1 mM MgCl2, 1 mM CaCl2, 1 mg/ml BSA) and then cultured in buffer A containing 10 mM LiCl at 37°C. for 30 minutes. Thereafter, they were treated with GnRH having a suitable concentration, cultured at 37° C. for another 30 minutes, and then the media was eliminated. The cells were treated with 10 mM of ice-cold formic acid to terminate the reaction, and the cell extracts were mixed with Dowex anionic exchange resins. These resins were washed with distilled water, IP was extracted with 1 M ammonium formate/0.1 M formic acid, and cpm (count per minute) was determined.

bfGnRHR = test: IP production in cells expressing bfGnRHR (bullfrog receptors taken together); assay type: cell-based
Description: as §1, with “determined. […]” for “determined.”

[3] = system: male rat (Sprague Dawley); test: Serum LH and testosterone after injection into male rat (radioimmunoassay); assay type: in vivo; details: 10 μg injected
Description: Example 3: GnRH-2 Agonist-induced serum LH and testosterone levels [D-Ala^6]GnRH-2 was dissolved in saline at a concentration of 100 μg/ml, and then 10 μg of [D-Ala^6]GnRH-2 was injected into the cervix of a male rat (Sprague Dawley rat having a weight of approximately 100 g). 1, 2, 4, and 8 hours after the injection, serum was obtained from the rat. The concentration of luteinizing hormone and testosterone present in the serum was measured by radioimmunoassay.

rat GnRHR [4] = target: T1, rat GnRHR; test: I125-GnRH-2 competitive ligand-receptor binding, membranes of GH3 cells expressing rat GnRHR; details: competition with I125-GnRH-2, 4 °C, 16 hours; read-out: Binding affinity (log IC50 value) (converted)
Description: To determine the binding affinity between GnRH and GnRH receptors, GnRH-2 was radiolabeled with I^125. […] After 48 hours, the cells were homogenized to obtain cellular membranes, which were then dissolved in binding buffer (40 mM Tris, pH 7.4, 2 mM MgCl2). 20 μg of membrane proteins were reacted with I^125-GnRH-2 at 4° C. for 16 hours. […] After the reaction was completed, 1^125-GnRH-2 bound to the receptors was filtered using a Brandel harvester, and cpm was measured using a y-counter.

bfGnRHR-1 = test: Inositol phosphate (IP) production in GH3 cells expressing bfGnRHR-1; assay type: cell-based, bullfrog
From the text: The GnRH receptor, a membrane protein connected with the G protein, activates the G protein when activated by a ligand, and the activated G protein activates phospholipase C and thereby the synthesis of inositol phosphate (IP), which is the second transmitter in cells, is increased. Based on this principle, the activity of a receptor can be investigated by measuring the amount of IP within cells. GH3 cell lines were obtained from the Cell Line Bank at the Cancer Research Center, Seoul National University College of Medicine, located in Seoul, Republic of Korea. The GH3 cell lines were infected with retroviruses comprising genes encoding […]-2, and bfGnRHR-3 which are bullfrog GnRH receptors, and rat GnRHR, and cell lines expressing each of these receptors were obtained. The GH3 cells expressing […]-3, and rat GnRHR were cultured on 12-well plates. After 24 hours, the cells were cultured again for 24 hours in a media containing no inositol, to which H^3-myoinositol was added. […] Thereafter, they were treated with GnRH having a suitable concentration, cultured at 37° C. for another 30 minutes, and then the media was eliminated. […] These resins were washed with distilled water, IP was extracted with 1 M ammonium formate/0.1 M formic acid, and cpm (count per minute) was determined. […]

rat GnRHR [5] = target: T1, rat GnRHR; test: Inositol phosphate (IP) production in GH3 cells expressing rat GnRHR; assay type: cell-based
From the text: The GnRH receptor, a membrane protein connected with the G protein, activates the G protein when activated by a ligand, and the activated G protein activates phospholipase C and thereby the synthesis of inositol phosphate (IP), which is the second transmitter in cells, is increased. Based on this principle, the activity of a receptor can be investigated by measuring the amount of IP within cells. GH3 cell lines were obtained from the Cell Line Bank at the Cancer Research Center, Seoul National University College of Medicine, located in Seoul, Republic of Korea. The GH3 cell lines were infected with retroviruses comprising genes encoding […]-2, and bfGnRHR-3 which are bullfrog GnRH receptors, and rat GnRHR, and cell lines expressing each of these receptors were obtained. The GH3 cells expressing […]-3, and rat GnRHR were cultured on 12-well plates. After 24 hours, the cells were cultured again for 24 hours in a media containing no inositol, to which H^3-myoinositol was added. […] Thereafter, they were treated with GnRH having a suitable concentration, cultured at 37° C. for another 30 minutes, and then the media was eliminated. The cells were treated with 10 mM of ice-cold formic acid to terminate the reaction, and the cell extracts were mixed with Dowex anionic exchange resins. These resins were washed with distilled water, IP was extracted with 1 M ammonium formate/0.1 M formic acid, and cpm (count per minute) was determined. The GH3 cell lines were infected with retroviruses comprising genes encoding […]-2, and bfGnRHR-3 which are bullfrog GnRH receptors, and rat GnRHR, and cell lines expressing each of these receptors were obtained.

TSU-Pri cells = test: Binding of radiolabeled GnRH to TSU-Pri prostate cancer cells; set-up: species or system human; details: room temperature, 6 hours
Description: TSU-Pri, which is one of the prostate cancer cell lines, was cultured along with the radiolabeled I^125GnRH-1 and I^125GnRH-2. […] The radiolabeled GnRH and the cells were cultured at room temperature for 6 hours, and then washed with PBS (phosphate-buffered saline) several times to eliminate the unbound GnRH. Thereafter, the cells were isolated and radioactivity from the cells was measured using a y-counter.

Primate GnRH-2 receptor [6] = test: c-fos-luc luciferase activation in CV-1 cells expressing Primate GnRH-2 receptor; assay type: cell-based
Description: as §2
Of the GnRH-2 receptors, [D-Ala^6]GnRH-2 performed excellently, showing effects about 3 times that of a wild-type ligand, GnRH-2. […] When analogs where the 5th, 7th, and 8th amino acids of [D-Ala^6]GnRH-2 are substituted were used, it was observed that their effects were weaker than [D-Ala^6]GnRH-2, and therefore it can be seen that it is important to maintain His, Trp, and Tyr that are found at the 5th, 7th, and 8th positions of GnRH-2 as they are (FIG. 3b).

[7] = male rat about 100 g, 1, 2, 4, 8 hours

IC50 (rat GnRHR [1])	fold lower effect than Cetrorelix (rat GnRHR [1]; rat GnRH receptors)	IC50 (rat GnRHR [4])	EC50 (rat GnRHR [5]; GH3 cells, 30 min, given as log EC50 (negative values))	sensitivity compared with GnRH-1 (rat GnRHR [5]; rat GnRHR)	SMILES	effect on luciferase activity induced by GnRH-2 (Primate GnRH-2 receptor [2])	IP production by the antagonist alone (bullfrog GnRH receptors)	fold higher sensitivity than GnRH-1 (bfGnRHR)	fold higher sensitivity than GnRH-2 (bfGnRHR)	time of testosterone peak point after injection ([3]; male rat)	serum luteinizing hormone (LH) [3, 7]	serum testosterone [3, 7]	concentration activating bfGnRHR-1, fold lower than GnRH-2 (bfGnRHR-1)	effect of unradiolabeled competitor on binding of radiolabeled GnRH-2 to TSU-Pri cells (TSU-Pri cells)	effect, times that of wild-type ligand GnRH-2 (Primate GnRH-2 receptor [6])
0.537 nM	~60 fold	–	–	–	CC(=O)N[C@H](Cc1ccc2ccccc2c1)C(=O)N[C@H](Cc1ccc(Cl)cc1)C(=O)N[C@H](Cc1cccnc1)C(=O)N[C@@H](CO)C(=O)N[C@@H](Cc1ccc(O)cc1)C(=O)N[C@H](CCCNC(N)=O)C(=O)N[C@@H](Cc1c[nH]c2ccccc12)C(=O)N[C@@H](Cc1ccc(O)cc1)C(=O)N1CCC[C@H]1C(=O)N[C@H](C)C(N)=O [Trptorelix-1, Ac-D2Nal-(4Cl)D-Phe-D-3Pal-Ser-Tyr-D-Cit-Trp-Tyr-Pro-DAlaNH2] (Ac-[d2Nal][dPhe(4-Cl)][d3Pal]SY[dCit]WYP[dA]-NH2)	reduced in a concentration-dependent manner	production of IP was not observed	–	–	–	–	–	–	–	–
–	–	141 nM	3.24 nM	a sensitivity lower than 10-fold	C[C@@H](NC(=O)[C@H](Cc1c[nH]cn1)NC(=O)[C@H](CO)NC(=O)[C@H](Cc1c[nH]c2ccccc12)NC(=O)[C@H](Cc1c[nH]cn1)NC(=O)[C@@H]1CCC(=O)N1)C(=O)N[C@@H](Cc1c[nH]c2ccccc12)C(=O)N[C@@H](Cc1ccc(O)cc1)C(=O)N1CCC[C@H]1C(=O)NCC(N)=O [[D-Ala^6]GnRH-2, p-Glu-His-Trp-Ser-His-D-Ala-Trp-Tyr-Pro-GlyNH2] ([pGlu]HWSH[dA]WYPG-NH2)	–	–	40-20,000 fold	2.5-10 fold	4 h	an increase of luteinizing hormone (LH) was observed in only one hour	began to rapidly increase from 2 hours after the injection	~8 fold	reduced in a concentration-dependent manner	about 3 times

From patent US20060135432A1, “Agonists and antagonists of conadotropin-releasing hormone-2, and use thereof” (priority 2002, published 2006)
